These results are taken from paper PMC8201677, “Calycosin-loaded nanoliposomes as potential nanoplatforms for treatment of diabetic nephropathy through regulation of mitochondrial respiratory function” (Journal of Nanobiotechnology, 2021).

Data set [1] can be described thus: In vitro drug release in dialysis media (simulated gastric, intestinal and physiological fluid). The data set is classed as physicochemical. As to the method:
The EE and DL of the prepared calycosin-loaded nanoliposomes were determined by the dialysis method described previously. Briefly, 700 μL of the prepared calycosin-loaded nanoliposomes solution was added into a dialysis bag (cutoff of 8000), followed by putting into 20 mL of dialysis medium (PBS, pH 7.4). The samples were then shacked (10 h), and centrifuged (3000 rpm, 2 min) to determine the free calycosin concentration in the supernatant. Also, 500 µL of the calycosin-loaded nanoliposomes were added by 1500 μL of methanol, vortexed ([…]), sonicated (5 min), centrifuged (3000 rpm, 2 min) to calculate the total calycosin concentration (C0). 20 mL of the prepared calycosin-loaded nanoliposomes powder (V0) was weighted to calculate the solid powder mass (W0). 25 µl of the sample was injected into a HPLC system containing Phenomenex ODS analytical column (150 mm × 4.6 mm, 5 μm) with a guard column (30 mm × 10 mm, 3 μm) at 40 °C. The mobile phase was a mixture of methanol: double distilled water as follows:0.05 M KH2PO4 = 40:60:5, pH 4.0, with a flow rate of 1.0 ml/min [37]. The simulated gastric fluid was 0.1 mol/L HCl (100 mM, pH 1.2) supplemented with 0.5% Tween-80, the simulated intestinal fluid was PBS buffer (25 mM, pH 6.9) containing 0.5% Tween-80, and the simulated physiological buffer was PBS (150 mM, pH 7.4) containing 0.5% Tween-80. The cumulative drug release was then determined using the following equation [35]: Cumulative release rate%=[V1×(C1⋯+Ci1)+V2×Ci]/Vo×Co×100 where, V1 is the sampling amount, V2 is the volume of the dialysis medium, C1–Ci is the concentration of calycosin at each time point, and V0 and C0 are the volume and concentration of calycosin-loaded nanoliposomes added to the dialysis bag. Stability of calycosin-loaded nanoliposomes was explored for about two months at 37 °C by using particle size and encapsulation efficiency of the reconstituted nanoliposome.

Data set [2] can be described thus: Dissolution study in PBS pH 7.4. The data set is classed as physicochemical. The protocol:
The dissolution studies were performed based on the previous study. Briefly, the dissolution medium (pH 7.4, PBS, 900 ml) under stirring (100 rpm) was added by calycosin-loaded nanoliposomes which is equivalent to 50 mg of drug and at different time intervals, 15 mL samples were removed, replaced, filtrated ([…]), and dissolved in mixed solvent (methanol: distilled water = 5.5:3.5, v/v). Finally, 25 µl of the sample was injected into a HPLC system. The rest of the setup was similar to the above-mentioned explanations.

Data set [3] in a line: Pharmacokinetics in rats after oral administration. The data set is classed as in vivo. Conditions: male, Sprague-Dawley, rat, single dose 30 mg/kg calycosin, plasma. The protocol: […] male Sprague–Dawley rats were randomly divided into three groups ([…]) as control, treated with calycosin, and treated with calycosin-loaded nanoliposomes (dissolved in 1% ethanol). The doses of calycoin groups were 30 mg/kg for oral administration. After the rats were intragastrically administered with free or Nano-formulated calycosin, the 0.5 mL blood was taken from the fundus venous plexus of each rat at different time intervals. The blood samples were then centrifuged (4000 rpm, 10 min), and the plasma was removed and to stored − 80 °C. The content of the drug in the plasma sample was then calculated by the established LC-MS/MS method based on the previous report.

Data set [4] deals with mitochondria in kidney cells of diabetic rats. Briefly: MTT assay of mitochondrial viability in diabetic rats. The data set is classed as in vivo, Sprague–Dawley rats. Conditions: streptozotocin diabetic rats, treated 4 weeks. As to the method: (§1) Diabetes was induced in mice by injecting streptozotocin purchased from Sigma (USA). Streptozotocin was dissolved in a citrate buffer (pH 6.5, 0.1 M) and injected at a dose of 65 mg/kg intraperitoneally. Blood glucose was measured before the test and one week after streptozotocin injection, and mice with blood glucose above […] were considered diabetic. The calycosin or calycosin-loaded nanoliposomes were dissolved in PBS until it was ready to be injected, and the mice received […] of calycosin-loaded nanoliposomes for 4 weeks after becoming diabetic. Vitamin E (100 mg/kg) was also used as a positive control group. Animals were randomly divided in 5 groups which each group consisted of 6 male mice. […] Protein concentration was measured as standard using bovine serum albumin (BSA). […] 100 µl of mitochondrial supernatants were mixed by MTT stock solution (5 mg mL^−1) for 4 h, followed by removing the supernatants, addition of 150 μL DMSO for 5 min, and reading the absorbance of the samples at 570 nm using a microplate reader (BIO-RAD microplate reader-550).

Data set [5] shares this test system. The experiment in a line: ROS measurement by DCFH-DA assay in diabetic rats. The data set is classed as in vivo, Sprague–Dawley rats. Conditions: streptozotocin diabetic rats, treated 4 weeks. As to the method: as §1, with “Then,” for “100 µl of mitochondrial supernatants were mixed by MTT stock solution (5 mg mL^−1) for 4 h, followed by removing”, “fluorescence intensity” for “supernatants, addition of 150 μL DMSO for 5 min, and reading the absorbance”, “samples was read” for “samples”, “λex/λem of 485 nm/530” for “570”, “spectrofluorometer (CLARIOstar, Offenburg, Germany).” for “microplate reader (BIO-RAD microplate reader-550).”

For data set [6] the test system is unchanged. The experiment in a line: Lipid peroxidation (MDA) by TBARS analysis in diabetic rats. The data set is classed as in vivo, Sprague–Dawley rats. Conditions: streptozotocin diabetic rats, treated 4 weeks.

As a reminder, the AUC(0-inf) is total exposure, with the tail of the curve extrapolated. A higher AUC(0-inf) goes with more exposure. By AUC(0-t) is commonly meant exposure summed from dosing to a finite time, without extrapolation to infinity. What is called Cmax is the maximum level reached in the sampled fluid or tissue. By Tmax is commonly meant the time from dosing to the highest level. The term half-life denotes the time in which the quantity being followed falls by half. For the compound `COc1ccc(-c2coc3cc(O)ccc3c2=O)cc1O` [calycosin], the “time of (almost) complete / 100% release” value in data set [1] (simulated gastric medium pH 1.2) is recorded as ~20 h; in data set [1] (simulated intestinal fluid pH 6.9) it was ~100 h; in data set [1] (simulated physiological fluid pH 7.4), ~120 h. Besides, the cumulative release entry in data set [1] (simulated gastric medium pH 1.2, 1 h) was “about 32%”; in data set [1] (simulated intestinal fluid pH 6.9, 1 h), “about 32%”; in data set [1] (simulated intestinal fluid pH 6.9, 20 h), 90%; in data set [1] (simulated physiological fluid pH 7.4, 1 h) it was “about 7%”; in data set [1] (simulated physiological fluid pH 7.4, 20 h), 55%. Moreover, the dissolution rate result in data set [2] is “low”. This compound yielded an area under the curve AUC(0-inf) in data set [3] of 421 ± 73.3 ng·h/mL. The compound also gave an AUC(0-t) in data set [3] of 409 ± 67.3 ng·h/mL. The compound also displayed a Cmax in data set [3] of 298 ± 35.8 ng/mL. Also, in data set [3], the Tmax is 0.19 ± 0.017 h. This compound showed a half-life in data set [3] of 6.98 ± 0.96 h. Also, in data set [3] (read-out: MRT0−t), the MRT last was 8.68 ± 1.27 h. Further, the “mitochondrial viability (MTT) in comparison with diabetic rats” value in data set [4] is given as “significant recovery of mitochondrial viability”. The “generation of ROS (DCF fluorescence intensity)” value in data set [5] is “potentially reduced the generation of ROS”. Also, the “MDA level (lipid peroxidation)” value in data set [6] was “remarkable decrease in lipid peroxidation”.
